Source: patent US20260365653A1, “IRREVERSIBLE MUTEGFR INHIBITORS” (Bayer Aktiengesellschaft, priority 2022, published 2026)

How the values were obtained:
[1] = biological target: T1, mutEGFR (D770_N771insSVD) (Homo sapiens, UniProt P00533, DUP768-770); experiment: Exon20-Mutant-EGFR (D770_N771insSVD) kinase assay (TR-FRET); assay type: biochemical; conditions: mutEGFR (D770_N771insSVD) kinase assay IC50, Table 2a; D770_N771insSVD; 2 mM ATP
T1 construct: GST-EGFR #3 (SVD between D770 and N771); made in house; host or cells: Sf9 insect cells (baculovirus)
T1 sequence (P00533 with tags, fused parts or gaps DUP768-770): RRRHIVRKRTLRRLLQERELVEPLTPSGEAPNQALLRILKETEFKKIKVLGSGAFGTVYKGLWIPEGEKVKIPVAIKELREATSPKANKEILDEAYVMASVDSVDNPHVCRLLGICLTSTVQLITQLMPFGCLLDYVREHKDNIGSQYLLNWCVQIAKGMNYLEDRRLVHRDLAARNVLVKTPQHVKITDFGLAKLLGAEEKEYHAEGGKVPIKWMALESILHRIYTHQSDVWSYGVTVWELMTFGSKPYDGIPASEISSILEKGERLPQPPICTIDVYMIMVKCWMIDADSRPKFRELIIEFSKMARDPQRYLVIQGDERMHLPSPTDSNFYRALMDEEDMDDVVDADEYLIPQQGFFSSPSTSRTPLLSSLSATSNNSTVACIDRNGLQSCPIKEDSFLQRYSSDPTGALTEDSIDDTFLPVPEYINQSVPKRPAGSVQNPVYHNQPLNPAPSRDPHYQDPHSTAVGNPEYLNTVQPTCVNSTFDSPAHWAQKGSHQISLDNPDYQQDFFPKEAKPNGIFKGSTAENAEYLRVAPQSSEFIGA

[2] = biological target: T2, mutEGFR (D770_N771insNPG, T790) (Homo sapiens, UniProt P00533, INS770NPG/T790M); experiment: mutEGFR (D770_N771insNPG, T790) kinase assay; assay type: biochemical; conditions: Table 2a, D770_N771insNPG
T2 construct: exact insNPG construct not described; in-house EGFR proteins were N-terminal GST fusions from baculovirus/insect cells (borders R669-A1210 given only for WT, insSVD, insASV)
T2 sequence (P00533 with tags, fused parts or gaps INS770NPG/T790M limits assumed): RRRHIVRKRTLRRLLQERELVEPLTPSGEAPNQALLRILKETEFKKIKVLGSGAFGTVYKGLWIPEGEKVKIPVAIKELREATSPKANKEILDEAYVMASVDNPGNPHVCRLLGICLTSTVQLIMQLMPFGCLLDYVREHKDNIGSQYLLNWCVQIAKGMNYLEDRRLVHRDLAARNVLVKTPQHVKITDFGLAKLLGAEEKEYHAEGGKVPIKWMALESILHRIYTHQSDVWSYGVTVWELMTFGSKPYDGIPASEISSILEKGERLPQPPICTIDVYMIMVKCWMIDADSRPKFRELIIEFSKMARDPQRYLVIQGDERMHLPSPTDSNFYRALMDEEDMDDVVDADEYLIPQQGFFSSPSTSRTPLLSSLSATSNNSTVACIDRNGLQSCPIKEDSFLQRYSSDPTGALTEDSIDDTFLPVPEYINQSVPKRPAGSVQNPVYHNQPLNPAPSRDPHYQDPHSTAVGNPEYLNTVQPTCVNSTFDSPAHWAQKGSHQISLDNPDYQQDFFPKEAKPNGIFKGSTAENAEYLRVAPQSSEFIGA
Text: The different EGFR proteins used in the biochemical kinase activity inhibition assays were generated inhouse by expression in insect cells using Baculo Virus system and subsequent purification as described in the following paragraphs.
The cDNAs encoding the various protein sequences from human EGFR human (P00533) were optimized for expression in eukaryotic cells and synthesized by the GeneArt Technology at Life Technologies.

BA/F3 (insSVD) cells = experiment: Ba/F3-EGFR-insSVD cell survival assay (Cell Titer-Glo); assay type: cell-based; conditions: Mus musculus, BaF3, 48 h, Table 3a, cell survival, Cell Titer-Glo, with 10 ng/ml EGF, without IL-3
Procedure: Cellular Data Description (WT, insSVD, insSVD T790M) 293T cells from ATCC were transfected with pBABEpuro expression constructs for WT EGFR or EGFR-insSVD, or EGFR-insSVD T790M, and pCL-Eco packaging vector using Fugene-6 transfection reagent from Promega. Plates were incubated at 37° C. for 48 h. Retrovirus was harvested by filtering the media supernatant through a 0.45 μm filter.
Ba/F3 cells purchased from DSMZ were grown in RPMI+10% FBS+10 ng/ml IL-3 and infected with filtered retroviral supernatant at a 1:2 dilution. Polybrene was added to a concentration of 8 μg/mL, plates were spun for 90 min, and incubated for 16 h at 37° C. 2 μg/mL puromycin was added to the infected cells 24 h after infection and cells were continually grown in the presence of puromycin and 10 ng/ml IL-3. Following stably expressing Ba/F3 cell lines were generated: Ba/F3-EGFR-WT, Ba/F3-EGFR-insSVD, Ba/F3-EGFR-insSVD T790M, (Ba/F3-vector-control).
For cell survival assays, Ba/F3 cells were grown to a density of 1-2 million cells per mL, spun down and resuspended in media without IL-3, and replated at a concentration of 200,000-500,000 cells per mL. The cells ectopically expressing WT EGFR, EGFR-insSVD, or EGFR-insSVD T790M were plated with 10 ng/ml Millipore Culture grade EGF. The cells ectopically expressing pBABEpuro empty vector were plated with 10 ng/mL IL-3.
2 days later, cells were plated in 50 µL in a 384 well plate at a concentration of 4000 cells per well for cells assayed in the absence of IL-3 and 2000 cells per well for cells assayed in the presence of IL-3. 100 nL of compound was added to each well using a 100 nL pin head, and plates were incubated at 37° C. for 48 h.
Cell viability was measured by adding 20 μL of Cell Titer-Glo Luminescent Cell Viability Reagent diluted 1:3 in PBS. Plates were sealed with Perkin Elmer Top-Seal, inverted several times to mix, and immediately centrifuged at 1000 rpm for 2 min. Plates were incubated in low light conditions for 8-10 min and luminescence was measured.

SMILES	IC50 [1] [nM]	IC50 [2] [nM]	IC50 (BA/F3 (insSVD) cells) [nM]
CN(C)C/C=C/C(=O)N1Cc2c(-c3ccncc3)c(-c3ccc(F)cc3)nn2C(CC(=O)N(C)C)C1 (racemic) [Example 222, 2-[(7RS)-5-[(2E)-4-(dimethylamino)but-2-enoyl]-2-(4-fluorophenyl)-3-(pyridin-4-yl)-4,5,6,7-tetrahydropyrazolo[1,5-a]pyrazin-7-yl]-N,N-dimethylacetamide]	3.76	13	658
C=CC(=O)N1Cc2c(-c3ccncc3)c(-c3ccc(C(F)(F)F)cc3F)nn2CC1C (racemic) [Example 230, 1-[(6RS)-2-[2-fluoro-4-(trifluoromethyl)phenyl]-6-methyl-3-(pyridin-4-yl)-6,7-dihydropyrazolo[1,5-a]pyrazin-5(4H)-yl]prop-2-en-1-one]	0.416	1.04	15.6
C=CC(=O)N1Cc2c(-c3ccncc3)c(-c3ccc(OC)cc3F)nn2CC1C (racemic) [Example 231, 1-[(RS)-2-(2-fluoro-4-methoxyphenyl)-6-methyl-3-(pyridin-4-yl)-6,7-dihydropyrazolo[1,5-a]pyrazin-5(4H)-yl]prop-2-en-1-one]	0.502	1.1	65.9
C=CC(=O)N1Cc2c(-c3ccncc3)c(-c3ccc4ccccc4c3)nn2CC1C (racemic) [Example 232, 1-[(RS)-6-methyl-2-(naphthalen-2-yl)-3-(pyridin-4-yl)-6,7-dihydropyrazolo[1,5-a]pyrazin-5(4H)-yl]prop-2-en-1-one]	0.116	0.164	15.5
C=CC(=O)N1Cc2c(-c3ccncc3)c(-c3ccc4ccsc4c3)nn2CC1C (racemic) [Example 234, 1-[(6RS)-2-(1-benzothiophen-6-yl)-6-methyl-3-(pyridin-4-yl)-6,7-dihydropyrazolo[1,5-a]pyrazin-5(4H)-yl]prop-2-en-1-one]	0.17	0.331	122
CC1Cn2nc(-c3ccc4ccsc4c3)c(-c3ccncc3)c2CN1C(=O)/C=C/CN(C)C (racemic) [Example 236, (2E)-1-[(RS)-2-(1-benzothiophen-6-yl)-6-methyl-3-(pyridin-4-yl)-6,7-dihydropyrazolo[1,5-a]pyrazin-5(4H)-yl]-4-(dimethylamino)but-2-en-1-one]	0.181	0.289	256
C=C(F)C(=O)N1Cc2c(-c3ccncc3)c(-c3ccc4ccsc4c3)nn2CC1C (racemic) [Example 238, 1-[(RS)-2-(1-benzothiophen-6-yl)-6-methyl-3-(pyridin-4-yl)-6,7-dihydropyrazolo[1,5-a]pyrazin-5(4H)-yl]-2-fluoroprop-2-en-1-one]	1.57	2.21	68.7
C=CC(=O)N1CCn2nc(-c3ccc(F)cc3)c(-c3ccncc3)c2C1C (racemic) [Example 239, 1-[(RS)-2-(4-fluorophenyl)-4-methyl-3-(pyridin-4-yl)-6,7-dihydropyrazolo[1,5-a]pyrazin-5(4H)-yl]prop-2-en-1-one]	1.39	4.74	38.7
C=CC(=O)N1CCn2nc(-c3ccc(Cl)cc3F)c(-c3ccncc3)c2C1C (racemic) [Example 240, 1-[(RS)-2-(4-chloro-2-fluorophenyl)-4-methyl-3-(pyridin-4-yl)-6,7-dihydropyrazolo[1,5-a]pyrazin-5(4H)-yl]prop-2-en-1-one]	0.437	1.5	54
C=CC(=O)N1Cc2c(-c3ccncc3)c(-c3ccc4sccc4c3)nn2C(C)C1 (racemic) [Example 280, 1-[(7RS)-2-(1-benzothiophen-5-yl)-7-methyl-3-(pyridin-4-yl)-6,7-dihydropyrazolo[1,5-a]pyrazin-5(4H)-yl]prop-2-en-1-one]	0.0813	0.151	6.82
C=CC(=O)N1Cc2c(-c3ccncc3)c(-c3ccc(Cl)cc3)nn2C(C)C1 (racemic) [Example 281, 1-[(7RS)-2-(4-chlorophenyl)-7-methyl-3-(pyridin-4-yl)-6,7-dihydropyrazolo[1,5-a]pyrazin-5(4H)-yl]prop-2-en-1-one]	0.17	0.366	9.77

Continued by falling IC50 [1], values first:

IC50 [1] [nM]	IC50 [2] [nM]	SMILES	IC50 (BA/F3 (insSVD) cells) [nM]
3.88	12.3	C=CC(=O)N1CCn2nc(-c3ccc(OC)cc3)c(-c3ccncc3)c2C1C (racemic) [Example 241, 1-[(RS)-2-(4-methoxyphenyl)-4-methyl-3-(pyridin-4-yl)-6,7-dihydropyrazolo[1,5-a]pyrazin-5(4H)-yl]prop-2-en-1-one]	77.1
2.94	9.96	C=C(F)C(=O)N1Cc2c(-c3ccncc3)c(-c3ccc(Cl)cc3F)nn2CC1C (racemic) [Example 237, 1-[(RS)-2-(4-chloro-2-fluorophenyl)-6-methyl-3-(pyridin-4-yl)-6,7-dihydropyrazolo[1,5-a]pyrazin-5(4H)-yl]-2-fluoroprop-2-en-1-one]	126
0.749	1.99	CC1c2c(-c3ccncc3)c(-c3ccc(Cl)cc3F)nn2CCN1C(=O)/C=C/CN(C)C (racemic) [Example 244, (2E)-1-[(RS)-2-(4-chloro-2-fluorophenyl)-4-methyl-3-(pyridin-4-yl)-6,7-dihydropyrazolo[1,5-a]pyrazin-5(4H)-yl]-4-(dimethylamino)but-2-en-1-one]	168
0.724	2.2	C=CC(=O)N1Cc2c(-c3ccncc3)c(-c3ccc(OC)cc3)nn2CC1C (racemic) [Example 228, 1-[(6RS)-2-(4-methoxyphenyl)-6-methyl-3-(pyridin-4-yl)-6,7-dihydropyrazolo[1,5-a]pyrazin-5(4H)-yl]prop-2-en-1-one]	44.6
0.445	0.839	C=CC(=O)N1CCn2nc(-c3ccc4sccc4c3)c(-c3ccncc3)c2C1C (racemic) [Example 242, 1-[(RS)-2-(1-benzothiophen-5-yl)-4-methyl-3-(pyridin-4-yl)-6,7-dihydropyrazolo[1,5-a]pyrazin-5(4H)-yl]prop-2-en-1-one]	48.2
0.395	0.656	C=CC(=O)N1CCn2nc(-c3ccc4cc[nH]c4c3)c(-c3ccncc3)c2C1C (racemic) [Example 243, 1-[(RS)-2-(1H-indol-6-yl)-4-methyl-3-(pyridin-4-yl)-6,7-dihydropyrazolo[1,5-a]pyrazin-5(4H)-yl]prop-2-en-1-one]	97.8
0.258	0.467	C=CC(=O)N1Cc2c(-c3ccncc3)c(-c3ccc4cc(Cl)sc4c3)nn2CC1C (racemic) [Example 233, 1-[(RS)-2-(2-chloro-1-benzothiophen-6-yl)-6-methyl-3-(pyridin-4-yl)-6,7-dihydropyrazolo[1,5-a]pyrazin-5(4H)-yl]prop-2-en-1-one]	48.7
0.188	0.351	C=CC(=O)N1Cc2c(-c3ccncc3)c(-c3ccc4cc(F)sc4c3)nn2CC1C (racemic) [Example 229, 1-[(RS)-2-(2-fluoro-1-benzothiophen-6-yl)-6-methyl-3-(pyridin-4-yl)-6,7-dihydropyrazolo[1,5-a]pyrazin-5(4H)-yl]prop-2-en-1-one]	17.1
0.18	0.592	CC1Cn2nc(-c3ccc(Cl)cc3F)c(-c3ccncc3)c2CN1C(=O)/C=C/CN(C)C (racemic) [Example 235, (2E)-1-[(RS)-2-(4-chloro-2-fluorophenyl)-6-methyl-3-(pyridin-4-yl)-6,7-dihydropyrazolo[1,5-a]pyrazin-5(4H)-yl]-4-(dimethylamino)but-2-en-1-one]	24.1
